This note sets out measurements from paper PMC6303473 (Nature Communications, 2018).

In the experiment the test system is CD8+ T cells from HLA-B*44:02, HLA-B*44:03, or HLA-B*18:01 individuals. It counts as cell-based, human. The following applies: ICS. The text has this:
Fig. 1 NP338 elicits robust CD8^+ T cell responses only in the context of HLA-B*37:01. a–d Crystal structures of a HLA-B*37:01 (purple), b HLA-B*18:01 (blue), and c HLA-B*44:05 (yellow) in complex with NP338 WT (represented in black stick). d is showing an overlay of the three peptide–HLA complexes in cartoon representation, with NP338 colored accordingly to the bound HLA, namely, purple (HLA-B*37:01), blue (HLA-B*18:01), and yellow (HLA-B*44:05). e–g PBMCs from HLA-B*37:01^+ donors (n = 5), HLA-B*44:02^+ donors (n = 5), HLA-B*44:03^+ donors (n = 5), or HLA-B*18:01^+ donors (n = 5) were stimulated with a pool of NP338 peptides (10 μM each peptide, 30 μM total), and specificity was assessed in an ICS assay against 3 μM NP338 pool (1 μM each peptide, HLA-B*44:02^+ donors) directly into the well or 30 μM (10 μM each peptide, all other donors) NP338-pooled pulsed APC lines (HLA-B*37:01, HLA-B*44:03, and HLA-B*18:01). CD8^+ T cells are gated on lymphocytes, singlets, live^+ (when stained with the second antibody cocktail only) CD3^mid-high, CD8^+ T cells; as per Supplementary Fig. 2a. e Representative dot plots of IFNγ^+TNFα^+ production by pooled CD8^+ T cell lines derived from HLA-B*37:01^+, HLA-B*44:02^+, HLA-B*44:03^+, or HLA-B*18:01^+ donors, towards a pool of NP338 peptides. […]

Take Concanavalin A: the “CD8+ T cell response to non-specific stimulation” value is recorded as “responded strongly”.
On to `CCCCCCCCCCCCCC(=O)O[C@@H]1[C@@H](C)[C@@]2(O)[C@@H](C=C(CO)C[C@]3(O)C(=O)C(C)=C[C@@H]23)[C@@H]2C(C)(C)[C@]12OC(C)=O` [phorbol 12-myristate 13-acetate], for which the “CD8+ T cell response to non-specific stimulation” value is recorded as “responded strongly”.
